# Patent US12421276B2 (priority 2016, dated 2025)
# Several values for one entry are separate records, joined by “and”; a condition that tells them apart may be missing. Equal values may be shown once. Read-outs that look alike come from different tables or passages of the source. Where a SMILES comes first, the peptide text is derived from it. [ ]: non-standard residue; d: D form. The star is where a group is joined. Hexanoyl = CCCCCC(=O)*; Ahx = NCCCCCC(=O)O
# Columns and labels:
# [1] = Metabolic stability in simulated gastric fluid (SGF), pH 1.2, with or without pepsin; assay type: in vitro ADME; conditions: 5 μM, 37° C.
# Outline: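 Compound at 5 μM incubated at 37 °C in SGF (34.2 mM NaCl, pH 1.2) without or with 0.32% pepsin; acetonitrile/formic acid quench at time points, LC/MS/MS. Disappearance relative to 0-min; t½ from elimination rate constant of semi-log % remaining vs time.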
# [2] = Plasma stability study, human plasma; assay type: in vitro ADME; conditions: Human plasma, 1 μM, 37° C.
# Procedure: (§1) Human and rat plasma (K2 EDTA) were obtained from Bioreclamation.
# (§2) Compounds were dissolved as 0.3 mM DMSO stocks. Compounds were transferred to the plasma at 1 μM on a 96-well deep well plate. After mixing, samples were transferred to several 96-well plates (25 μL/well), and incubated at 37° C. The extent of metabolism was calculated as the disappearance of the test compound, compared to the 0-min control reaction incubations. Propantheline was included as a positive control to verify assay performance.
# (§3) At each of the time points, 150 μL of quench solution (50% acetonitrile, 50% methanol with 0.05% formic acid) with internal standard (bucetin for positive ESI mode and warfarin for negative ESI mode) was transferred to each well. Plates were sealed and centrifuged at 4° C. for 15 minutes at 4000 rpm. The supernatant was transferred to fresh plates for LC/MS/MS analysis.
# (§4) Elution conditions are detailed in the table below.
# (§5) Initial rates of the clearance of test compounds were calculated using linear regression of semi-log plot of % remaining of compounds versus time. The elimination rate constant (equals to −slope) of the linear regression was then used to determine t½ values.
# [3] = Plasma stability study, rat plasma; assay type: in vitro ADME; conditions: Rat plasma, 1 μM, 37° C.
# Procedure: as §1, §2, §3, §4, §5
# [4] = Metabolic stability in simulated intestinal fluid (SIF), pH 6.8, with or without pancreatin; assay type: in vitro ADME; conditions: −Pancreatin, 5 μM, 37° C.
# Outline: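 Compounds at 5 μM incubated at 37 °C in freshly made SIF pH 6.8 (NaOH/NaH2PO4/NaCl), with or without 1% pancreatin. Remaining parent measured by LC/MS/MS against 0-min control; t½ derived from elimination rate constant (−slope) of semi-log % remaining vs time.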
# Caco-2 cells = test: Caco-2 permeability study with or without P-gp inhibitor GF120918; conditions: for Caco-2 Cells Permeability Recovery Rate: 1 hr, pH 7.4
# Procedure: Buffer=HBSS, pH 7.4 with 5 mM HEPES
# Caco-2 cell plates were obtained commercially and were maintained for 21 days at 37° C. with 5% CO2. Cells were washed with Hank's Balanced Salt Solution (HBSS) 30 min before starting the experiment. Test compound solutions were prepared by diluting from DMSO stock into HBSS buffer in the presence or absence of 10 μM of P-gp inhibitor GF120918. The final DMSO concentration is 0.2%. Prior to each experiment, cell monolayer integrity was verified by transendothelial electrical resistance (TEER). Transport experiment was initiated by adding test compounds to the apical (75 μL) side. Transport plates were incubated at 37° C. in a humidified incubator with 5% CO2. Samples were taken from the donor and acceptor compartments after 1 hr and analyzed by liquid chromatography with tandem mass spectrometry (LC/MS/MS).
# Apparent permeability (Papp) values were calculated using the following equation: Papp=(dQ/dt)/A/C0
# where dQ/dt is the initial rate of amount of test compound transported across cell monolayer, A is the surface area of the filter membrane, and C0 is the initial concentration of the test compound. C0 is calculated for each condition using a 4-point calibration curve.
# Absorption quotient between the two assay conditions was calculated by the following equation:
# Absorption quotient (AQ)=(Papp, A-B with inhibitor−Papp, A-B without inhibitor)/Papp, A-B with inhibitor where Papp, A-B with inhibitor and Papp, A-B without inhibitor represent the apparent permeability of test compound from the apical to basal side of the cellular monolayer in the presence and absence of 10 μM P-gp inhibitor GF120918, respectively.
# All samples were analyzed on LC/MS/MS using an AB Sciex API 4000 instrument, coupled to a Shimadzu LC-20AD LC Pump system. Analytical samples were separated using a Waters Atlantis T3 dC18 reverse phase HPLC column (10 mm×2.1 mm) at a flow rate of 0.5 mL/min. The mobile phase consisted of 0.1% formic acid in water (solvent A) and 0.1% formic acid in acetonitrile (solvent B).
# [5] = assay type: in vivo, rat
# Procedure: • 1. Eight (8) male JVC SD rats (purchased from Charles River Lab) were monitored daily for body condition and health status during the 3-5 days acclimation period. The rats were randomly assigned into […] (n=4). • 2. […] The dosed rats were individually placed into a metabolic cage, and have access to food and water at all times. The urine from each rat was collected daily from the metabolic cages, and kept in dry ice. • 4. At predose (0 min), 5 min, 15 min, 30 min, 1 hr, 2 hr, 8 hr, and 24 hr post dosing, approximately 200 ul blood samples were collected from each rat and transferred to EDTA tubes. • 5. The blood samples in EDTA vials were centrifuged at 4° C. and 6,000 rpm for 10 minutes to generate ˜100 μl of plasma per sample. Blood samples were processed as quickly as possible and remain no longer than 2 min at room temperature and no longer than 15 minutes at 4° C. prior to processing. • 6. All samples were transferred for bioanalytic assay using LCMS
# [6] = Rat, PO, 10 mg/kg equiv., n = 4, analyte: Parent (BASE STRUCTURE)
# [7] = rat, dosed as Base Structure 20 mg/kg, analyte Parent (Base Structure), Average
# [8] = rat, dosed as Base Structure 20 mg/kg, analyte Parent (Base Structure), Combined (average ± std. dev.)
# [9] = rat, dosed as Base Structure 20 mg/kg, analyte Parent (Base Structure), individual animals
smiles,measurement,setting,value
"CCCCCC(=O)N[C@@H](Cc1ccc(O)cc1)C(=O)N[C@H](C(=O)NCCCCCC(N)=O)[C@@H](C)CC [Base Structure, N-hexanoic-L-tyrosine-L-isoleucine-(6)-aminohexanoic amide, reference compound] (Hexanoyl-Tyr-Ile-[Ahx]-NH2)",SGF Stability (pH 1.2) Half-Life (min),[1]; +Pepsin (0.32%),26.0 min
same,SGF Stability (pH 1.2) 0 min,[1]; +Pepsin (0.32%),100%
same,SGF Stability (pH 1.2) 60 min,[1]; +Pepsin (0.32%),13%
same,SGF Stability (pH 1.2) 240 min,[1]; +Pepsin (0.32%),0.2%
same,SGF Stability (pH 1.2) Half-Life (min),[1]; −Pepsin,Neg.
same,SGF Stability (pH 1.2) 0 min,[1]; −Pepsin,100%
same,SGF Stability (pH 1.2) 60 min,[1]; −Pepsin,127%
same,SGF Stability (pH 1.2) 240 min,[1]; −Pepsin,122%
same,Plasma Stability Half-Life,[2],209.3 h
same,Plasma Stability (% Parent Remaining) 0 min,[2]; 0 min,100%
same,Plasma Stability (% Parent Remaining) 60 min,[2]; 60 min,98%
same,Plasma Stability (% Parent Remaining) 120 min,[2]; 120 min,102%
same,Plasma Stability (% Parent Remaining) 240 min,[2]; 240 min,98%
same,Plasma Stability Half-Life,[3],1095.1 min
same,Plasma Stability (% Parent Remaining) 0 min,[3]; 0 min,100%
same,Plasma Stability (% Parent Remaining) 60 min,[3]; 60 min,87%
same,Plasma Stability (% Parent Remaining) 120 min,[3]; 120 min,89%
same,Plasma Stability (% Parent Remaining) 240 min,[3]; 240 min,83%
same,SIF Stability (pH 6.8) Half-Life (min),[4],Neg.
same,SIF Stability (pH 6.8) 0 min,[4]; 0 min,100%
same,SIF Stability (pH 6.8) 60 min,[4]; 60 min,119%
same,SIF Stability (pH 6.8) 240 min,[4]; 240 min,113%
same,Abs. Quotient,Caco-2 cells; (Papp A-B with inhibitor − without inhibitor)/Papp A-B with inhibitor,0.84 and 0.82
same,Caco-2 Cells Permeability Recovery Rate,"Caco-2 cells; +GF120918 (10 μM), 10 μM compound",83% and 96%
same,Caco-2 Cells Permeability Recovery Rate,"Caco-2 cells; −GF120918, 10 μM compound",87% and 91%
same,AUC0-24,[5]; [6],0.4 ± 0.2 ng·h/mL
same,Cmax,[5]; [6],0.9 ± 0.5 ng/mL
same,Tmax,[5]; [6],24 ± 30 min
same,AUC 0-t,[5]; [7],0.4468 ng·h/mL
same,Cmax,[5]; [7],0.9267 ng/mL
same,Tlag,[5]; [7],0 h
same,Tmax,[5]; [7],26.6 min
same,AUC 0-t,[5]; [8],0.4 ± 0.2 ng·h/mL
same,Cmax,[5]; [8],0.9 ± 0.5 ng/mL
same,Tlag,[5]; [8],0 ± 0 h
same,Tmax,[5]; [8],24 ± 30 min
same,AUC 0-t,[5]; [9],0.6164 ng·h/mL and 0.5175 ng·h/mL and 0.2066 ng·h/mL
same,Cmax,[5]; [9],0.689 ng/mL and 1.54 ng/mL and 0.551 ng/mL
same,Tlag,[5]; [9],0 h
same,Tmax,[5]; [9],4.8 min and 15 min and 60 min
